From the Kinase Knowledgebase extract (Sharma et al. 2016)

Molecular target: EGFR (Human), P00533 [T790M/L858R]
Conditions: nci-h1975

Sequence of EGFR (Human), P00533 [T790M/L858R] (P00533 whole entry T790M/L858R, looked up): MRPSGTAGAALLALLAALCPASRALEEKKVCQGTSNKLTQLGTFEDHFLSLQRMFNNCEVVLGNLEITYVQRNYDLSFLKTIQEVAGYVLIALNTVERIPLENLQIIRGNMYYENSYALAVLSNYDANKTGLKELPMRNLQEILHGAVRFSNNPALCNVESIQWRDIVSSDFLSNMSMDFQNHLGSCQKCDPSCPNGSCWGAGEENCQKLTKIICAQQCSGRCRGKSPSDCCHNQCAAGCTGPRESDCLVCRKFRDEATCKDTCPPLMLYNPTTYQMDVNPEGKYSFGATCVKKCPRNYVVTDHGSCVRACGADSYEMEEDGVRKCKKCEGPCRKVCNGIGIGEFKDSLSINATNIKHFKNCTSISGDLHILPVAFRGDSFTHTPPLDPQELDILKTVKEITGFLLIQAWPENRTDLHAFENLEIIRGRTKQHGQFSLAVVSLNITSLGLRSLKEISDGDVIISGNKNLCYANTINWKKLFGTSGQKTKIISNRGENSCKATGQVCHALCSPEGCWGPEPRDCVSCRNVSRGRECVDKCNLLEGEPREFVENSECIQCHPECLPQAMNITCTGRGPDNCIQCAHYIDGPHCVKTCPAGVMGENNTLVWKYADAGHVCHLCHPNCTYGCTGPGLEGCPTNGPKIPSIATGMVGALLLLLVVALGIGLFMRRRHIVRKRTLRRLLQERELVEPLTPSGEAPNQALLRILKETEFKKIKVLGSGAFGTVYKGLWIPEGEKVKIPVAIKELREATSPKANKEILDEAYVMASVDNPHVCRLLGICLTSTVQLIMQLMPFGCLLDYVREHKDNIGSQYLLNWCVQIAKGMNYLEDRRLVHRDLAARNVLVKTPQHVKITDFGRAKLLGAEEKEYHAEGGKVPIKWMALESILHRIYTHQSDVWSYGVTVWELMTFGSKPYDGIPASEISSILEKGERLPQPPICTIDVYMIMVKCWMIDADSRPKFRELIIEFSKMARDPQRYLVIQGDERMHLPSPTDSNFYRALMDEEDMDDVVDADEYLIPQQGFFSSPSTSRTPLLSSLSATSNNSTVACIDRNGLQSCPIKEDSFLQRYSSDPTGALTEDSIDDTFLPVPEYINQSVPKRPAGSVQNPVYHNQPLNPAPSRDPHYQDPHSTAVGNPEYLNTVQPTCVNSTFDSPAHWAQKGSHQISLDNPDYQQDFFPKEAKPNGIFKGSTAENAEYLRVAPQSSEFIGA

SMILES	EC50 [nM]
CCC(C)n1nc(N2CC[C@H](C(N)=O)C2)c2cnc(Nc3ccnc(N4CCC(C)(O)CC4)n3)cc21 (stereo partly drawn)	2200
CC(C)n1nc(N2CC(O)C(F)(F)C2)c2cnc(Nc3ccnc(N4CCC(C)(O)CC4)n3)cc21 (stereo not drawn)	1330
CC(C)n1nc(NCCO)c2cnc(Nc3ccnc(-c4cnn(S(=O)(=O)C5CC5)c4)n3)cc21	877
CCS(=O)(=O)n1cc(-c2nccc(Nc3cc4c(cn3)c(NC3COC3)nn4C(C)C)n2)cn1	921
CC(C)n1nc(N2CCOCC2)c2cnc(Nc3ccnc(-c4cnn(CC5CC5)c4)n3)cc21	1840
CC(C)n1nc(N2CC(O)C2)c2cnc(Nc3ccnc(-c4cnn(S(=O)(=O)C5CC5)c4)n3)cc21	1120
CC(C)n1nc(N2CC[C@@H](N)C2=O)c2cnc(Nc3ccnc(N4CCC(C)(O)CC4)n3)cc21	8120
Cc1cn[nH]c1-c1nn(C(C)C)c2cc(Nc3ccnc(N4CCC(O)C(C)(C)C4)n3)ncc12 (stereo not drawn)	1710
CC(C)n1nc(N2CC3(C2)CS(=O)(=O)C3)c2cnc(Nc3ccnc(N4CCC(C)(O)CC4)n3)cc21	3090
CC(C)n1nc(NC(=O)C(C)(C)O)c2cnc(Nc3ccnc(-c4cnn(S(=O)(=O)C5CC5)c4)n3)cc21	2080
CC(C)n1nc(N2CC(C(=O)N3CC[C@@H](O)C3)C2)c2cnc(Nc3ccnc(-c4cnn(S(=O)(=O)C5CC5)c4)n3)cc21	2520
CC(C)n1nc(N2CC(C(C)(C)C(N)=O)C2)c2cnc(Nc3ccnc(N4CCC(C)(O)CC4)n3)cc21	> 10000
CC(C)n1nc(N2CC3(C2)C[S+]([O-])C3)c2cnc(Nc3ccnc(N4CCC(C)(O)CC4)n3)cc21	3910
CC(C)Oc1nn(C(C)C)c2cc(Nc3ccnc(-c4cnn(S(=O)(=O)C5CC5)c4)n3)ncc12	3590
CC(C)n1nc(N2CC(C(C)(C)C#N)C2)c2cnc(Nc3ccnc(-c4cnn(S(=O)(=O)C5CC5)c4)n3)cc21	1380
CC(C)n1nc(NC(C)(C)C#N)c2cnc(Nc3ccnc(N4CC[C@H](O)[C@H](F)C4)n3)cc21	8270
CC(C)n1nc(N2CCN(C)C2=O)c2cnc(Nc3ccnc(-c4cnn(S(=O)(=O)C5CC5)c4)n3)cc21	> 10000
CC(C)n1nc(NCCS(C)(=N)=O)c2cnc(Nc3ccnc(-c4cnn(S(=O)(=O)C5CC5)c4)n3)cc21 (stereo not drawn)	> 10000
CC(C)Nc1nn(C(C)C)c2cc(Nc3ccnc(-c4cnn(S(=O)(=O)C5CC5)c4)n3)ncc12	951
CC(C)n1nc(N2CC[C@H](N)C2=O)c2cnc(Nc3ccnc(N4CCC(C)(O)CC4)n3)cc21	9730
CC(C)n1nc(N(C)CC(O)CO)c2cnc(Nc3ccnc(-c4cnn(S(=O)(=O)C5CC5)c4)n3)cc21 (stereo not drawn)	945
CCC(C)n1nc(N2CCN(C(=O)[C@@H](C)O)CC2)c2cnc(Nc3ccnc(-c4cnn(S(=O)(=O)C5CC5)c4)n3)cc21 (stereo partly drawn)	1090
COC1CCN(c2nccc(Nc3cc4c(cn3)c(N)nn4C[C@H]3CC[C@H](N)CC3)n2)CC1	> 10000
CC[C@@H](C)n1nc(N2CC3(COC3)C2)c2cnc(Nc3ccnc(OCC(C)(C)S(C)(=O)=O)n3)cc21	1240
CC(C)n1nc(NCC(N)=O)c2cnc(Nc3ccnc(-c4cnn(S(=O)(=O)C5CC5)c4)n3)cc21	5440
CC(C)n1nc(N2CC(C#N)CC2=O)c2cnc(Nc3ccnc(N4CCC(C)(O)CC4)n3)cc21 (stereo not drawn)	1100
CC(C)n1nc(N2CC[S+]([O-])CC2)c2cnc(Nc3ccnc(-c4cnn(S(=O)(=O)C5CC5)c4)n3)cc21	835
CC(C)n1nc(NC2CCS(=O)(=O)C2)c2cnc(Nc3ccnc(-c4cnn(S(=O)(=O)C5CC5)c4)n3)cc21 (stereo not drawn)	1640

Further lines, results first:

EC50 [nM]	SMILES
798	CC(C)n1nc(OC2CCOC2)c2cnc(Nc3ccnc(-c4cnn(S(=O)(=O)C5CC5)c4)n3)cc21 (stereo not drawn)
630	CC(C)n1nc(N2CC[C@H](O)C2=O)c2cnc(Nc3ccnc(-c4cnn(S(=O)(=O)C5CC5)c4)n3)cc21
825	CC(C)NC(=O)C1CN(c2nn(C(C)C)c3cc(Nc4ccnc(-c5cnn(S(=O)(=O)C6CC6)c5)n4)ncc23)C1
813	CCC(C)n1nc(N2CCN(C(=O)[C@H](C)O)CC2)c2cnc(Nc3ccnc(-c4cnn(S(=O)(=O)C5CC5)c4)n3)cc21 (stereo partly drawn)
775	CC(C)n1nc(N[C@@H]2CCOC2)c2cnc(Nc3ccnc(-c4cnn(S(=O)(=O)C5CC5)c4)n3)cc21
159	CC(C)n1nc(N2CC3(COC3)C2)c2cnc(Nc3ccnc(N4CCC(O)C(C)(C)C4)n3)cc21 (stereo not drawn)
184	CC(C)n1nc(N2CC(CC#N)C2)c2cnc(Nc3ccnc(-c4cnn(S(=O)(=O)C5CC5)c4)n3)cc21
484	CCNC(=O)C1CN(c2nn(C(C)C)c3cc(Nc4ccnc(-c5cnn(S(=O)(=O)C6CC6)c5)n4)ncc23)C1
271	CC(C)n1nc(N2CC(CO)C2)c2cnc(Nc3ccnc(-c4cnn(S(=O)(=O)C5CC5)c4)n3)cc21
344	CC(C)n1nc(N2CC(C(=O)N3CCOCC3)C2)c2cnc(Nc3ccnc(-c4cnn(S(=O)(=O)C5CC5)c4)n3)cc21
201	CC(C)n1nc(N2CC[C@H](O)C2)c2cnc(Nc3ccnc(-c4cnn(S(=O)(=O)C5CC5)c4)n3)cc21
650	CNC(=O)C1CN(c2nn(C(C)C)c3cc(Nc4ccnc(-c5cnn(S(=O)(=O)C6CC6)c5)n4)ncc23)C1
421	CC(C)n1nc(N2CC3(COC3)C2)c2cnc(Nc3ccnc(-c4cnn(S(=O)(=O)C5CC5)c4)n3)cc21
619	CCC(C)n1nc(N2CC[C@@H](O)C2)c2cnc(Nc3ccnc(N4CCC(C)(O)CC4)n3)cc21 (stereo partly drawn)
432	CC(C)n1nc(N2CC(N3CCOCC3)C2)c2cnc(Nc3ccnc(-c4cnn(S(=O)(=O)C5CC5)c4)n3)cc21
288	CCC(C)n1nc(N2CC(C(C)(C)O)C2)c2cnc(Nc3ccnc(N4CCC(O)C(C)(C)C4)n3)cc21 (stereo not drawn)
373	CC(C)n1nc(N[C@H]2CCOC2)c2cnc(Nc3ccnc(-c4cnn(S(=O)(=O)C5CC5)c4)n3)cc21
241	CC(C)n1nc(N2CCOC(CO)C2)c2cnc(Nc3ccnc(-c4cnn(S(=O)(=O)C5CC5)c4)n3)cc21 (stereo not drawn)
139	CC(C)n1nc(N2CC[C@H](CO)C2)c2cnc(Nc3ccnc(-c4cnn(S(=O)(=O)C5CC5)c4)n3)cc21
785	CC[C@H](C)n1nc(N2CC3(COC3)C2)c2cnc(Nc3ccnc(OCC(C)(C)S(C)(=O)=O)n3)cc21
272	CCS(=O)(=O)n1cc(-c2nccc(Nc3cc4c(cn3)c(NC3CCOC3)nn4C(C)C)n2)cn1 (stereo not drawn)
388	COC1CCN(c2nccc(Nc3cc4c(cn3)c(N3CC5(COC5)C3)nn4C(C)C)n2)CC1
429	CC[C@H](C)n1nc(N2CC(C(C)(C)O)C2)c2cnc(Nc3ccnc(N4CC[C@@H](O)[C@@H](F)C4)n3)cc21
300	CCC(C)n1nc(N2CCCC2=O)c2cnc(Nc3ccnc(N4CC[C@@H](O)[C@@H](F)C4)n3)cc21 (stereo partly drawn)
266	CC(C)n1nc(N2CCOCC2)c2cnc(Nc3ccnc(-c4cnn(S(=O)(=O)C5CC5)c4)n3)cc21
765	CC(C)n1nc(N2CCCNC2=O)c2cnc(Nc3ccnc(-c4cnn(S(=O)(=O)C5CC5)c4)n3)cc21
620	CC(C)n1nc(N2CC(C)(CO)C2)c2cnc(Nc3ccnc(-c4cnn(S(=O)(=O)C5CC5)c4)n3)cc21
569	CCC(C)n1nc(N2CCCC2=O)c2cnc(Nc3ccnc(N4CCC(C)(O)CC4)n3)cc21 (stereo not drawn)
499	CC(C)n1nc(N2CCCC2)c2cnc(Nc3ccnc(N4CCC(O)C(C)(C)C4)n3)cc21 (stereo not drawn)
404	CC(C)n1nc(N2CC[C@@H](O)C2)c2cnc(Nc3ccnc(N4CC[C@@H](O)[C@@H](F)C4)n3)cc21
